# Measured values published in the METLIN SMRT retention time set (Domingo-Almenara et al. 2019).
# Experiment: gradient 5% acetonitrile 3 min, to 50% in 2 min, to 85% in 15 min, held 3 min, 100 µL/min
# Conditions: column: Zorbax Extend-C18 2.1 x 50 mm; eluents: water / acetonitrile, 0.1% formic acid
# In short: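 Using water and acetonitrile that each contained 0.1% formic acid, mixtures of ~100 pure standards were separated at 100 μL/min on a Zorbax Extend-C18 column (2.1 × 50 mm, 1.8 μm). The HPLC fed a quadrupole time-of-flight mass spectrometer working in positive and negative ionization mode, with dead and dwell volumes of 40 μL and 900 μL. Data were acquired over 3 months. Retention time was read from computationally picked adduct peaks after manual inspection of each.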
row,Compound,RP-LC retention time [s]
1,CCC1CN2C=Nc3oc(C)c(C(=O)Nc4cccc(C(F)(F)F)c4)c3C2=N1 (stereo not drawn),719
2,Brc1ccc(-c2noc(CSc3nccn3-c3ccccc3)n2)cc1,1030
3,CCOC(=O)c1noc2nc(C)nc(Nc3cccc(CC)c3)c12,1140
4,O=C1NCCCCCN(C(=O)c2ccoc2)[C@@H]2C[C@@H](C(=O)N3CCc4ccccc4C3)C[C@H]12,753
5,CC(C)OCCCNC(=O)c1nnc(-c2ccc(S(=O)(=O)N3CCCC3)cc2)o1,843
6,Cc1ccc2c(c1)N(S(C)(=O)=O)CCC(C(=O)NCc1ccccc1Cl)O2 (stereo not drawn),945
7,O=C(NC1CCCC1)C1CCCN(c2ccc3cc(S(=O)(=O)N4CCCC4)ccc3n2)C1 (stereo not drawn),716
8,COc1ccc(CNC(=O)c2cn3cc(Cl)ccc3n2)cc1,811
9,COc1ccccc1C(=O)N1CCC2(CC1)OCCN2S(=O)(=O)c1ccc(F)c(C)c1,835
10,C=CCN1C(=O)COc2ccc(-c3csc(NC(=O)CC(C)C)n3)cc21,954
11,COc1ccccc1CCC(=O)N1CCn2cnnc2C1,594
12,CC(C)c1csc(-c2csc(S(=O)(=O)NCc3ccccc3)c2)n1,1040
13,Cc1cccc(-c2nc(-c3cccc(-c4ccn[nH]4)c3)no2)c1,1100
14,CCN1C(=O)COc2ccc(-c3noc(-c4ccc(OC)cc4)n3)cc21,1130
15,CN1CCN(CCNC(=O)C2CCc3sc(C(=O)N4CCCC4)cc3C2)CC1 (stereo not drawn),569
16,Cc1ccccc1-c1noc(Cn2ccn(-c3c(C)cccc3C)c(=O)c2=O)n1,923
17,Cc1[nH]nc(-c2ccc(S(=O)(=O)N3CCC(C)CC3)o2)c1C,932
18,O=C(CN1CCCCCC1)NCC12CCCC=C1NC(=O)CC2 (stereo not drawn),567
19,CCCS(=O)(=O)N1CCN(C(=O)c2cc(-c3ccc(OC)cc3)n[nH]2)CC1,745
20,O=C(CCNc1c(-c2cccc(F)c2)nc2cnccn12)NCc1cc(F)cc(F)c1,769
21,Cc1cccc2c(C(=O)NC(C)C)cc(N3CCCC3)nc12,611
22,CCc1nc(-c2ccc3c(c2)CCN3C(=O)COc2ccccc2)no1,988

row,Compound,RP-LC retention time [s]
1,O=C(CN1CC=C(c2cnn(-c3ccccc3)c2)CC1)N1CCN(c2ccccc2F)CC1,732
2,COc1ccc(N2CCN(c3nccc4ccc(C(=O)NC5CCCCC5)cc34)CC2)cc1,771
3,c1cc(CN2CC(Oc3ccc(-c4noc(C5CCOCC5)n4)cc3)C2)cs1,671
4,O=C([C@@H]1C[C@H](F)CN1S(=O)(=O)c1ccccc1)N1CCOCC1,643
5,Cc1cc(=O)n(CC(=O)NCc2ccccc2)c(N2CCCCC2)n1,652
6,CSc1cccc(NC(=O)CN2CCC3(CC2)N=C(c2cccc(F)c2)C(=O)N3)c1,685
7,COc1cc(-c2nc3nc(C)cc(C)n3c2Nc2ccc(Cl)cc2)ccc1O,656
8,CC1CCN(c2cc(-c3noc(C(=O)NCCC4=CCCCC4)n3)ccn2)CC1,1100
9,Cc1[nH]c(C)c(S(=O)(=O)N2CCC(C(=O)N3CCc4ccccc43)CC2)c1C(=O)N1CCCC1,716
10,COC(=O)CNC(=O)Nc1ccccc1-c1cc2ccccc2[nH]1,810
11,CCCNC(=O)C1CCCN(c2ccc(SCC(=O)Nc3c(C)cccc3C)nn2)C1 (stereo not drawn),651
12,O=C(Nc1nc(-c2ccc(Br)cc2)cs1)c1cccc(-n2cnnc2)n1,884
13,Cc1ccc(N2CC(c3noc(-c4ccc(F)cc4)n3)CC2=O)cc1 (stereo not drawn),1010
14,CCN(CC)S(=O)(=O)c1ccc2c(c1)N(CC(=O)NCCOC)C(=O)C1CCCCN21 (stereo not drawn),788
15,CCOc1nc2ccccc2nc1N1CCCC(C(=O)Nc2ccccc2CC)C1 (stereo not drawn),1120
16,CC(C)C(NC(=O)c1cccc(CN2C(=O)C3CCCN3C(=O)c3ccccc32)c1)c1cccs1 (stereo not drawn),882
17,Cc1cccc(CNC(=O)c2ccc3c(c2)nc2n3CCN(C3CCCCC3)C2=O)c1,824
18,CCn1c(=O)c(N2CCC(NC(=O)Nc3ccc(OC)c(OC)c3)CC2)nc2ccccc21,785
19,Cc1ccc(S(=O)(=O)N2C(=O)CCC2C(=O)N(C)C2CCCCC2)cc1C (stereo not drawn),1010
20,Cc1ccc(NC(=O)c2sc3nc[nH]c(=O)c3c2C)c(C)c1,725
21,Cc1ccc(C)c(S(=O)(=O)N2[C@H]3CC[C@@H]2c2cnc(-c4ccc(F)cc4)nc2C3)c1,1270
22,O=C(c1cccc(Cn2cncn2)c1)N1CCC2(CC1)OCCO2,607

row,Compound,RP-LC retention time [s]
1,COc1ccc(C(=O)N2CCC3(CC2)NC(=O)c2ccc(Cl)cc2N3)cc1,735
2,Oc1ccc(Cl)cc1C1CC(c2ccc(Cl)cc2)=NC2(CCN(Cc3ccccc3)CC2)N1 (stereo not drawn),791
3,CCN(CC)C(=O)N[C@@H]1C[C@@H]2c3cccc4[nH]cc(c34)C[C@H]2N(C)C1,684
4,Cc1cc(OCC(=O)Nc2ccc(F)cc2Cl)nc(N2CCN(c3ccccc3)CC2)n1,976
5,Cn1nc(-c2nnc(-c3ccccc3F)o2)c2c1CCN(S(=O)(=O)c1ccc3c(c1)CCCC3)C2,1090
6,CCN(CC)c1cc(C)nc2nc(CN3CCN(c4ccc(OC)cc4)CC3)nn12,571
7,CC(C)c1csc(-c2csc(S(=O)(=O)Nc3ccc(F)c(F)c3)c2)n1,1120
8,COc1ccc(OC)c(CNC(=O)C2CCCN2S(=O)(=O)c2cc3c(cc2C)NC(=O)CO3)c1 (stereo not drawn),730
9,O=C(NCC1CCCO1)C1CCCN(c2ccnc(-c3ccccc3)n2)C1 (stereo not drawn),571
10,Cc1cc(NC(=O)N2C[C@@H](F)C[C@H]2C(=O)N2CCCCC2)ccc1Br,824
11,CC1=C(c2ccccc2)S(=O)(=O)N=C1N1CCCN(C(=O)c2ccccc2Cl)CC1,811
12,CC(C)NC(=O)c1ccc(OCC2CCCN2C(=O)c2ccco2)cc1 (stereo not drawn),757
13,COc1ccc(-c2noc(C3CCCN3C(=O)Nc3ccc(C)cc3)n2)cc1 (stereo not drawn),830
14,COc1ccc(C)cc1NC(=O)N1C[C@@H]2C[C@H](NS(C)(=O)=O)[C@H]1C2,717
15,CCCCn1cc(S(=O)(=O)Nc2cccc(C)c2)c2cccnc21,976
16,Cc1cc(C)cc(N2CCC(NC(=O)c3ccc(Br)o3)C2=O)c1 (stereo not drawn),894
17,CCN(CCN(C)C)c1ccc(C(=O)O)cc1NS(=O)(=O)c1cc(F)ccc1F,611
18,CC(=O)NCC(O)c1ccc([N+](=O)[O-])cc1 (stereo not drawn),661
19,CS(=O)(=O)N(C1CCOCC1)C1CCN(S(=O)(=O)Cc2ccccc2)CC1,779
20,CCCn1nc(CNC(=O)COc2ccccc2)c2ccccc21,900
21,COc1ccc(NC(=O)C2CCCN(c3ccc(=O)n(-c4ccc(F)cc4)n3)C2)cc1 (stereo not drawn),828
22,CCOC(=O)c1cccc(NC(=O)C2CCCN(c3ccc(=O)n(-c4cccc(Cl)c4)n3)C2)c1 (stereo not drawn),994

row,Compound,RP-LC retention time [s]
1,CCN(CC)c1ncc2c(n1)CCC(C(=O)NCc1ccc(F)cc1Cl)C2 (stereo not drawn),731
2,COc1nn(C)cc1C(=O)NCC1(c2ccc(F)cc2)CC1,751
3,CCOC(=O)c1c(C)[nH]c(CCC(=O)Nc2cc(F)ccc2F)c1C,933
4,O=C(NCc1cccc2ccccc12)NCc1nnnn1-c1ccccc1,751
5,COc1ccccc1-c1noc(Cn2cnc3c(cnn3-c3ccc(C)cc3)c2=O)n1,1100
6,COc1ccc(NC(=O)C2c3cc(OC)c(OC)cc3C(=O)N(C)C2c2cccs2)cc1OC (stereo not drawn),744
7,CCOC(=O)C1CCCN(C(=O)Cn2ccc3ccc(-c4nnc(C)o4)cc32)C1 (stereo not drawn),785
8,Cc1cc(C)c(S(=O)(=O)N2CC(c3nc(-c4ccncc4)no3)C2)cc1C,974
9,CC(C)OCCCNC(=O)c1ccc2c(c1)NC(=O)C(C(C)C)N2 (stereo not drawn),688
10,O=C(NCCc1ccccc1)C1CCN(c2cc(N3CCCCC3)ncn2)CC1,685
11,Cc1ccc(NC(=O)Cn2nc(N(C)C)c3ccccc3c2=O)cc1,857
12,Cc1cc(C)c(S(=O)(=O)N2CCc3nc(-c4ccccc4)ncc3C2)cc1C,1230
13,CCOC(=O)C1=C(C)NC2=C(C(=O)c3ccccc32)C1c1ccc(OCC)cc1 (stereo not drawn),718
14,Cc1cc(C(=O)N2C[C@@H](CO)[C@H](N(C)C)C2)ccc1Br,597
15,CCCn1cc(CCNS(=O)(=O)c2ccc(C3CCCCC3)cc2)c2cccnc21,1210
16,O=C(CN1C(=O)CCCc2cc(S(=O)(=O)N3CCCCCC3)ccc21)N1CCc2ccccc2C1,974
17,CN(C)S(=O)(=O)c1ccc(-c2nnc(C(=O)NCCC3=CCCCC3)o2)cc1,941
18,CS(=O)(=O)N1CCC(C2CCN(Cc3ccccc3C#N)C2)CC1 (stereo not drawn),590
19,CCN1CCN(C(=O)CN2C(=O)C3CCCCN3c3ccc(C(=O)N4CCCCC4)cc32)CC1 (stereo not drawn),632
20,COc1ccc2[nH]c3c(c2c1)CCN1C(=O)N(c2cccc(Cl)c2)C(=O)C31C (stereo not drawn),1030
21,O=C(NCC(=O)N1CCCc2ccccc21)c1ccccc1,777
22,O=C(Cn1ccc2ccn(CC3CC3)c2c1=O)N1CCOCC1,682
